Laboratory results published in US10201580B2, “Methods of feeding animals liquid feed with soluble fiber and sugar alcohol” (PURINA ANIMAL NUTRITION LLC, priority 2004, dated 2019).

Experiments:
[1] = Further trial, calf milk replacer without psyllium, with or without sorbitol: weight gain, CMR consumption, starter intake, feed:gain; format: in vivo, Holstein bull calves; conditions: 6 g per day of sorbitol
Source text: (§1) A further trial was ran to determine what effect sorbitol without a dietary fiber would have on calves fed an intensified diet of calf milk replacer. Forty-six three to ten day old Holstein bull calves weighing approximately 90 to 100 pounds were fed an intensified diet of calf milk replacer. Twenty-four calves were fed a calf milk replacer without psyllium and without sorbitol and twenty-two calves were fed calf milk replacer without psyllium but with sorbitol. […] were fed 6 grams each per day of sorbitol. Data for parameters presented in the Tables above was analyzed using the general linear model (GLM) statistical procedure of SAS™. Statistical analysis software for a randomized complete block design that included both the particular feed regimen and the week of the test period in the model statement. The SAS™ statistical analysis software is available from SAS Institute, Inc. of Cary, N.C. Additionally, all data was analyzed to determine the mean of the data for each variable under consideration during the collection period for the particular data. Additionally, the PDiff function of the GLM statistical procedure was used to characterize the mean values of the data by providing for comparisons between mean data values for the calves of different treatments for particular test parameters or variables.

Holstein bull calves [2] = experiment: Further trial, calf milk replacer without psyllium, with or without sorbitol: scour score and scour days; format: in vivo; conditions: 6 g of sorbitol per day
Source text: as §1

Holstein bull calves [3] = experiment: Further trial, calf milk replacer without psyllium, with or without sorbitol: weaning scores; format: in vivo; conditions: 6 g per day of sorbitol; no psyllium
Source text: as §1

Holstein bull calves [4] = experiment: Further trial, calf milk replacer without psyllium, with or without sorbitol: respiratory scores; format: in vivo; conditions: 6 g per day of sorbitol; no psyllium
Source text: as §1

Compound: OC[C@@H](O)[C@@H](O)[C@H](O)[C@@H](O)CO [sorbitol]
- difference in average feed:gain (feed efficiency) vs calves fed no sorbitol [1]: no statistically significant difference
- difference in calf milk replacer consumption vs calves fed no sorbitol [1]: no statistically significant difference
- difference in starter feed intake vs calves fed no sorbitol [1]: no statistically significant difference
- difference in total weight gain vs calves fed no sorbitol [1]: no statistically significant difference
- difference in scour score vs calves fed no sorbitol (Holstein bull calves [2]): no statistically significant different
- difference in scoured days vs calves fed no sorbitol (Holstein bull calves [2]): no statistically significant different
- difference in weaning scores vs calves not fed any sorbitol (Holstein bull calves [3]): no statistically significant difference
- difference in respiratory scores vs calves not fed any sorbitol (Holstein bull calves [4]): no statistically significant difference
